Entries after “also recorded” stand apart in the source; their conditions may differ.
Assays:
human c-src = biological target: T1, human c-src (Homo sapiens, UniProt P12931); experiment: c-src kinase ELISA; type: biochemical; settings: 1-100 μM range
T1 construct: purchased Upstate NY; host or cells: Baculovirus expression
Description: Conditions for the c-src and insulin kinase assays were similar to those of the EGFR kinase assay, with the exception of the addition of 1 mM manganese chloride to the assay buffer, and a final ATP concentration of 100 μM. The reaction was terminated by the addition of 50 μl of a 250 mM solution of EDTA prior to aspiration.

[1] = biological target: T2, HER2 (erbB2) gene product p185neu (Homo sapiens, UniProt P04626); experiment: Heregulin-stimulated phosphorylation of p185neu in MDA-MB453 cells; type: cell-based
T2 construct: heregulin (HRG)-stimulated phosphorylation of the HER2 (erbB2) gene product; endogenous in cells

A431 cells = experiment: Alkaline comet assay for DNA damage in A431 cells; settings: A431, 30 min or 2 h exposure
Description: A431 cells were exposed to drugs for 30 min or 2 h, and harvested with trypsin-EDTA. The cells were subsequently collected by centrifugation and re-suspended in PBS. The resulting cell suspension was diluted to approximately 10^6 cells, and mixed with agarose (1%) in PBS at 37° C. in a 1:10 dilution. The gels were cast on Gelbond strips (Mandel Scientific, Guelph, Canada) using gel casting chambers, as previously described (32), then immediately placed into a lysis buffer [2.5 M NaCl, 0.1 M tetra-sodium EDTA, 10 mM tris-base, 1% (w/v) N-lauryl sarcosine, 10% (v/v) DMSO and 1% (v/v) Triton X-100]. After being kept on ice for 30 min, the gels were gently rinsed with distilled water and then immersed in a second lysis buffer [2.5 M NaCl, 0.1 M tetra-sodium EDTA, 10 mM tris-base], containing 1 mg/ml proteinase K for 60 min at 37° C. Thereafter, the gels were rinsed with distilled water, incubated in alkaline electrophoresis buffer for 30 min at 37° C., and electrophoresed at 300 mA for 60 min. The gels were subsequently rinsed with distilled water and placed into 1 M ammonium acetate for 30 min. They were further soaked in 100% ethanol for 2 h, dried overnight and subsequently stained with SYBR Gold ( 1/10000 dilution of stock supplied from Molecular Probes, OR) for 20 min. For evaluation of comets, DNA damage was assessed using the Tail Moment parameter (i.e. the product of the distance between the barycentres of the head and the tail of the comet. A minimum of 50 cell comets were analyzed for each sample using ALKOMET v3.1 software, and values are an average of tail moments for the entire cell population.
Cell suspensions were diluted to approximately 10^6 cells, and mixed with agarose (1%) in PBS at 37° C. in a 1:10 dilution. The gels were cast on Gelbond strips (Mandel Scientific, Guelph, Canada) using gel casting chambers, as previously described (31), and then immediately placed in a lysis buffer [2.5 M NaCl, 0.1 M tetra-sodium EDTA, 10 mM Tris-base, 1% (w/v) N-lauryl sarcosine, 10% (v/v) DMSO, and 1% (v/v) Triton X-100, pH 10.0]. After being kept on ice for 30 min, the gels were gently rinsed with distilled water and immersed in a second lysis buffer (2.5 M NaCl, 0.1 M tetrasodium EDTA, 10 mM Tris-base) containing 1 mg/ml proteinase K for 60 min at 37° C. Thereafter, the gels were rinsed with distilled water, incubated in alkaline electrophoresis buffer for 30 min at 37° C., and electrophoresed at 300 mA for 60 min. The gels were subsequently rinsed with distilled water and placed in 1 M ammonium acetate for 30 min. They were soaked in 100% ethanol for 2 h, dried overnight, and subsequently stained with SYBR Gold ( 1/10000 dilution of stock supplied from Molecular Probes, Eugene, Oreg.) for 20 min. Comets were visualized at 330× magnification and DNA damage was quantitated using the Tail Moment parameter (i.e., the distance between the barycenter of the head and the tail of the comet multiplied by the percentage of DNA within the tail of the comet). A minimum of 50 cell comets were analyzed for each sample, using ALKOMET version 3.1 image analysis software, and values are averages of tail moments for the entire cell population per sample.

EGFR = EGFR (Homo sapiens, UniProt P00533); experiment: EGFR TK ELISA with PGT substrate (competitive binding at the ATP site); type: biochemical; design: purchased BIOMOL (Plymouth Meeting); also a gift from Pfizer Inc
Description: The ability of the combi-molecules to block EGFR TK activity was determined by an ELISA assay using poly(L-glutamic acid-L-tyrosine, 4:1) PGT as a substrate and commercially available EGFR.
Nunc MaxiSorp 96-well plates were incubated overnight at 37° C. with 100μL per well of 0.25 mg/mL PGT in PBS. Excess PGT was removed and the plates were washed 3 times with Tween 20 (0.1%) in PBS. […] The compound was added and phosphorylation initiated by the addition of ATP (20 μM). After 8 min at room temperature with constant shaking, the reaction was terminated by the aspiration of the reaction mixture and by rinsing the plate 4 times with wash buffer (Tween 20 (0.1%) in PBS). […] Antibody was removed by aspiration, and the plates washed 4 times with wash buffer. The signals were developed by the addition of 50 μL per well of TMB peroxidase substrate (Kierkegaard and Perry Laboratories, Gaithersberg, Md.).
This assay is similar to the one previously described. Nunc MaxiSorp 96-well plates were incubated overnight at 37° C. with 100 μl/well of 25 ng/ml PGT in PBS. Excess PGT was removed and the plates were washed three times with wash buffer (Tween 20 (0.1%) in PBS). […] The compound was added and phosphorylation initiated by the addition of ATP (20 μM). After 8 min at room temperature with constant shaking, the reaction was terminated by aspirating the mixture and by rinsing the plates four times with wash buffer Tween 20 (0.1%) in PBS. […] Antibody was removed by aspiration, and the plate washed four times with wash buffer. The signals were developed by the addition of 50 μl/well of 3,3′,5,5′-tetramethylbenzidine (TMB) peroxidase substrate (Kierkegaard and Perry Laboratories, Gaithersberg, Md., USA).

Chain of EGFR (P00533 25-1210): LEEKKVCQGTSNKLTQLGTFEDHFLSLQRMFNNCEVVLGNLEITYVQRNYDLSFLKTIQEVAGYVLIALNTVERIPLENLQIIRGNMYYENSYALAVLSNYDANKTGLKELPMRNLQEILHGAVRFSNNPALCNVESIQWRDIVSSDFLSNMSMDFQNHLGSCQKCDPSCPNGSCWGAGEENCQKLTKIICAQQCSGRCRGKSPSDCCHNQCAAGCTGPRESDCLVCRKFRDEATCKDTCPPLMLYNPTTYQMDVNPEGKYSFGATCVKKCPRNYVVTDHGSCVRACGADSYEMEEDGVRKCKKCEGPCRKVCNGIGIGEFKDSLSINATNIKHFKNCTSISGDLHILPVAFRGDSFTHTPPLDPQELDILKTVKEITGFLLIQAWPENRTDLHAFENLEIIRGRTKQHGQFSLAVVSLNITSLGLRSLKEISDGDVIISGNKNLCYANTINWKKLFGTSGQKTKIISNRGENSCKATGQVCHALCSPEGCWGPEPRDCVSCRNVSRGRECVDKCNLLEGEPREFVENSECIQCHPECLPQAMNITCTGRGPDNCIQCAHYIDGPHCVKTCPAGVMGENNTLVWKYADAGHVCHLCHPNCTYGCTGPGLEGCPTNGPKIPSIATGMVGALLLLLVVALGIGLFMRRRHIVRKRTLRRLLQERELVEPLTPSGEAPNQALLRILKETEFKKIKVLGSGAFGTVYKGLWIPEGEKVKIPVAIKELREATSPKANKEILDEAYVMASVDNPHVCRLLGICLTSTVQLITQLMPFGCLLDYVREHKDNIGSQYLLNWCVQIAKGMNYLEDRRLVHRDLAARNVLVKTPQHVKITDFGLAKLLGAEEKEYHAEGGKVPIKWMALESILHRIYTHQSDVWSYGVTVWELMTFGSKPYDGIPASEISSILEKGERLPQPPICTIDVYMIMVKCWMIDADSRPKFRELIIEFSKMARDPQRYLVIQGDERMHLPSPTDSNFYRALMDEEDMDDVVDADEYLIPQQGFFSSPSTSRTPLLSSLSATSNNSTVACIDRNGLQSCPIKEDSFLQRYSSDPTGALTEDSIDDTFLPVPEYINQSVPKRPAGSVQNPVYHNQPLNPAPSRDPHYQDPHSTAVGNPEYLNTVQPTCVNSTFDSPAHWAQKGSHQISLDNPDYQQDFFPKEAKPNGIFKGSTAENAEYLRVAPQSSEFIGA
T2 sequence (P04626 23-1255): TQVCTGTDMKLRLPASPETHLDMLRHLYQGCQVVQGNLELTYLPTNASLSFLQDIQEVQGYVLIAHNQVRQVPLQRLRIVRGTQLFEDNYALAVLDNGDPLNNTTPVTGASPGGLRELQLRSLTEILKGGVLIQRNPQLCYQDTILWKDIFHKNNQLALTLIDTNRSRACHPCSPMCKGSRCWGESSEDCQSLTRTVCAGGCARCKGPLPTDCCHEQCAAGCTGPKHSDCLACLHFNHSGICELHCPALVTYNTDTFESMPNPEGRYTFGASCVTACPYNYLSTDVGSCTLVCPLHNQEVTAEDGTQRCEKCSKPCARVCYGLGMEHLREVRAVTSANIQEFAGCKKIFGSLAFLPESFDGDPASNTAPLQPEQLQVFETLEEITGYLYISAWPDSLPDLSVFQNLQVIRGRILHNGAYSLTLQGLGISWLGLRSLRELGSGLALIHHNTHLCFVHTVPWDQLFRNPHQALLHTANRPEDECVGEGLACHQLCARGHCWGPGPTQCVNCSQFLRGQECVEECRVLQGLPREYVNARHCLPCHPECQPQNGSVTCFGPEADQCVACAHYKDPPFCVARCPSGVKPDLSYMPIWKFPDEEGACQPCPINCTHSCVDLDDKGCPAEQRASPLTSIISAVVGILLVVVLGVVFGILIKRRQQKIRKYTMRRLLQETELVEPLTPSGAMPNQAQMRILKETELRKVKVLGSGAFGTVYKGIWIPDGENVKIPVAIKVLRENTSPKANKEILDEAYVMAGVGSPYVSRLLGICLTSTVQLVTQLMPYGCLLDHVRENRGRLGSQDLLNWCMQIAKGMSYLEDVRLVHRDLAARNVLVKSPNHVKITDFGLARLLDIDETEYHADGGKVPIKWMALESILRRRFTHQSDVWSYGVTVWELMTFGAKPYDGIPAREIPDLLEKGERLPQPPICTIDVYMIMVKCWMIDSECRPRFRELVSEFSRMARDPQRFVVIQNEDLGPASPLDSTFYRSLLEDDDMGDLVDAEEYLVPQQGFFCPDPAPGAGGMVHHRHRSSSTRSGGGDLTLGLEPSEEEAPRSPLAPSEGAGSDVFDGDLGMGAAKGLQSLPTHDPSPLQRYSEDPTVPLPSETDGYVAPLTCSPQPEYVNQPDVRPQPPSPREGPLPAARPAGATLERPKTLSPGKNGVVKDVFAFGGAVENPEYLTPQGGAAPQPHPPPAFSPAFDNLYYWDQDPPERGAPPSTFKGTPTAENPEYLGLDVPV
T1 sequence (P12931 whole entry): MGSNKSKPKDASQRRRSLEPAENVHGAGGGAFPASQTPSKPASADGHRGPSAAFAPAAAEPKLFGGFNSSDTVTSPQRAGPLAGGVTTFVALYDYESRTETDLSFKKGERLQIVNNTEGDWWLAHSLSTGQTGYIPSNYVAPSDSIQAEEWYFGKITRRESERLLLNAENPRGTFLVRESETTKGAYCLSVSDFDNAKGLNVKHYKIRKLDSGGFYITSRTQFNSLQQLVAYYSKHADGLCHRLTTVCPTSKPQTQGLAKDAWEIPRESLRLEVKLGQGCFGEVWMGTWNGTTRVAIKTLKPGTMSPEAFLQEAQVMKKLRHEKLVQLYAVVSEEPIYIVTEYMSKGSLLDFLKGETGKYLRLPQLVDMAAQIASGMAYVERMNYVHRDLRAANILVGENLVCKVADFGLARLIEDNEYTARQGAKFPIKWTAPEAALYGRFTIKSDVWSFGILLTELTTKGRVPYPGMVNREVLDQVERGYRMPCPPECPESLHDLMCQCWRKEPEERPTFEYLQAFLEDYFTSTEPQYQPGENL

CNN=Nc1ccc2ncnc(Nc3cccc(Cl)c3)c2c1 [BJ2000]
effect on c-src TK activity (human c-src): did not block c-src TK activity | effect on heregulin (HRG)-stimulated phosphorylation of p185neu [1]: able to block | DNA damage (comet tail moment) (A431 cells): induced dose-dependent DNA damage; also recorded: induced significant DNA damage | fold stronger affinity than SMA41 (EGFR): 2 fold | IC50 (EGFR; ELISA, PGT substrate, purified EGFR, ATP 20 μM, 8 min, read-out: IC50, inhibition of EGFR TK (competitive binding at ATP site)): 100 nM | fold greater EGFR binding affinity than metabolite FD105 (EGFR; purified EGFR, ATP site): 2 fold
